Measurements reported in patent US8853188B2, “Compositions and methods for cancer treatment” (Women and Infants Hospital of RI, Inc., priority 2005, dated 2014).

Tests used:
IMR-32 cells [1] = assay: Proliferation of apoptosis-resistant NB cells; assay type: cell-based; conditions: data not shown
neuroblastic cells = assay: Apoptosis (DNA fragmentation, Cell Death Detection ELISA), FIG. 4A; assay type: cell-based
Procedure: (§1) Materials and methods. Proliferation was measured by MTS and BrdU incorporation assays. Apoptosis was assessed by DNA fragmentation, Cell Death Detection ELISA and caspase-3-assays. Effect of B3CD on TrkB signaling by BDNF was assessed by Western Blot analysis of AKT and ERK phosphorylation. The effect on angiogenesis was determined by chick chorioallantoic membrane (CAM) assay and aortic ring assay.
B3CD was tested on the panel of cell described above. […] Such cell-type specificity is not uncommon. […] However, keratinocytes were not affected by B3CD (FIG. 4A; Lane-2). In addition, caspase-3 activity was increased by B3CD (FIG. 4B). These studies indicated an underlying apoptotic mechanism in the anticancer activity of B3CD.

IMR-32 cells [2] = assay: Apoptosis in apoptosis-resistant NB cells; assay type: cell-based; conditions: IMR-32; data not shown
Procedure: (§2) NB is characterized with defective apoptotic pathways. […] Neuronal (N-) type SH-SY5Y and IMR-32 cells, and stromal (S-) type SMS-KCNR cells which are resistant to apoptosis were used. […] A defect in caspase-8 or its activation causes resistance to apoptosis and in turn to chemotherapy in all these cells. On the other hand, these cells carry intact intrinsic apoptotic pathway, and executioner caspase-3 is activated by caspase-9 route.
(§3) In depth studies were carried out to assess the activation of intrinsic and extrinsic apoptotic pathways. […] Caspase-9 was activated by B3CD in these cells (FIG. 10B), indicating an active role of intrinsic pathway of apoptosis. […] However, caspase-8 was undetectable in IMR-32 and SH-SY5Y cells.
(§4) Although caspase-8 was detected in SMS-KCNR cells, it was not activated by B3CD (FIG. 10D). Actin immunoblotting was used as loading control in the above studies (data not shown).

SMS-KCNR cells = assay: Apoptosis in apoptosis-resistant NB cells; assay type: cell-based; conditions: data not shown
Procedure: as §2, §3, §4

caspase-3 = assay: Caspase-3 activation with specific substrate in SK-N-SH cells; assay type: cell-based; conditions: 250 nM, compared to vehicle treated control
Procedure: Caspases are integral to apoptosis in cells. Following the treatment of SK-N-SH cells with 250 nM B3CD, activation of caspase-3 was measured by using specific substrate.

AKT = assay: Western Blot analysis of AKT phosphorylation; assay type: cell-based; conditions: neuroblastoma cells
Procedure: as §1
(§5) Neuroblastoma cells were treated with B3CD for 48 hrs. […] AT 0.5 nM, B3CD inhibited >50% (p<0.035) and >90% at […] (p<0.01) viability and proliferation respectively.

[3] = mouse, in vivo
Procedure: FIG. 6A. In vivo studies to determine apparent systemic toxicity of B3CD. Mice were injected with the specified amounts of B3CD (i.p.) once in 48 hr for 28 days. The animals were weighed to assess the effect of B3CD on change in body weight.
FIG. 6B. At the end of the experiment (6A) mice were sacrificed and blood collected to estimate serum calcium as a measure of hypercalcemia.
A major concern was the potential systemic toxicity of B3CD due to hypercalcemia since B3CD (FIG. 1) is a derivative of calcidiol, which is a family member of calcitriol (Schmidt-Gayk H, Bouillon R, Roth H J. Measurement of vitamin D and its metabolites (calcidiol and calcitriol) and their clinical significance. Scand J Clin Lab Invest Suppl. 1997; 227:35-45). Therapeutic doses of calcitriol lead to increased serum calcium and consequently death; therefore, hypercalcemia is a hallmark of lethality of pharmacologic doses of calcitriol. In the event that further testing in vivo might show lethal calcemic side effects, preliminary studies were carried out to determine any overt toxic effects in a murine model.
The effect of B3CD on serum calcium levels in SCID mice was tested. These studies were carried out in Boston University School of Medicine, Boston, Mass., in accordance with institutional guidelines. B3CD, calcidiol and calcitriol were formulated in 80% polyethylene glycol in PBS and were administered as i.p. injections once in 48 hours for 28 days. Animals were euthanized, sera collected and analyzed immediately for serum calcium in the hospital core facility. The animals were divided into 4 groups of 5 animals each.

endothelial cells = assay: Apoptosis in endothelial cells (DNA fragmentation); assay type: cell-based
Source text: Apoptosis in EC by B3CD was studied by DNA fragmentation and caspase-3 activation analyses as before.

[4] = test system: SK-N-SH, SH-Sy5Y, SMS-KCN and SMS-R neuroblastic cells; assay: Viability and proliferation of neuroblastoma cells, 48 hrs; assay type: cell-based; design: inhibition of proliferation: dose or concentration left out as unconfirmed
Procedure: as §1, §5

SK-N-SH cells = assay: Cell cycle analysis; assay type: cell-based; conditions: 400 nm
Caspase-9 = Caspase-9 immunoblot in NB cells; assay type: cell-based; conditions: SMS-KCNR, IMR-32 and SH-SY5Y cells
Procedure: FIG. 10B. Caspase-9 immunoblot.
as §3

panel of cancer cells = assay: Antiproliferative and cytotoxic activity on a panel of cancer cells (MTS, 96 well plates); assay type: cell-based
Source text: A panel of cancer cells is used to evaluate the antiproliferative and cytotoxic activities of B3CD and related analogs. The cells include colon (Colo), breast (MCF-7 and MDA-MB-231), lung (A549), prostate PC3 and LNCaP), melanoma (SK-MEL-31), renal (Caki-1), ovarian (OVCAR-3), bladder (T24), pancreatic (BxPC-3), hepatocarcinoma (Hep3B), neuroblastoma (SH-SY5Y), glioblastoma (SNB-19), medulloblastoma (D283 Med), skin (LS123), squamous cell carcinoma (Scc-15), acute promyelocytic leukemia (APL), myeloblastic (HL-60) and myelomonocytic (U937).
The anticancer activity testing will be carried out by high throughput screening. The cancer cells will be cultured in 96 well plates and treated with the library. B3CD has been tested in this system and was effective at a 200 nM dose. For general screening, 2-200 nM doses will be used. Cells will be treated with the compounds for 12, 24, 48 and 72 hours. A 96 well plate format allows testing a large number of compounds simultaneously. An MTS based colorimetric method of evaluation of proliferation will be utilized, which is widely used in cancer drug discovery. The fingerprint of profiled drugs using 60 cell-line screening program by NCl using COMPARE algorithm (Paull K D, Shoemaker R H, Hodes L, Monks A, Scudiero D A, Rubinstein L, Plowman J, Boyd M R. Display and analysis of patterns of differential activity of drugs against human tumor cell lines: development of mean graph and COMPARE algorithm. J Natl Cancer Inst 1989; 81:1088).
as §1

Q: Which inhibition of proliferation (IMR-32 cells [1]) does the source give for `C=C1CC[C@H](OC(=O)CBr)C/C1=C/C=C1\CCC[C@]2(C)[C@@H]([C@H](C)CCCC(C)(C)O)CC[C@@H]12` [B3CD, bromoacetic acid 3-{2-[1-(5-hydroxy-1,5-dimethyl-hexyl)-7a-methyl-octahydro-inden-4-ylidene]-ethylidene}-4-methylene-cyclohexyl ester] here?
A: The inhibition of proliferation was “dose dependent inhibition of proliferation”.

Q: And the “DNA laddering (apoptosis)” value (neuroblastic cells)?
A: The value was “distinct DNA laddering characteristic of apoptosis”.

Q: And the induction of apoptosis (neuroblastic cells)?
A: The induction of apoptosis was “induced rapid apoptosis”.

Q: What about the induction of apoptosis (IMR-32 cells [2]) of the same compound?
A: The induction of apoptosis was “induced apoptosis”.

Q: And the induction of apoptosis (SMS-KCNR cells)?
A: The induction of apoptosis was “induced apoptosis”.

Q: And the “increase of caspase-3 activity” value (caspase-3)?
A: Its value is ~6 fold.

Q: What about the “phosphorylation of AKT” value (AKT) of the same compound?
A: Its value is “inhibited phosphorylation”.

Q: What about the “clinical signs (lethargy, tolerance to handling, mobility)” value [3] of the same compound?
A: The value was “showed no such signs”.

Q: And the “toxicity in murine models” value [3]?
A: Its value is “no toxicity”.

Q: What about the DNA fragmentation (endothelial cells) of the same compound?
A: Its DNA fragmentation is “DNA fragmentation characteristic of apoptosis”.

Q: What about the induction of apoptosis (endothelial cells; data not shown) of the same compound?
A: The induction of apoptosis was “induced apoptosis”.

Q: What about the “inhibition of proliferation (in words)” value [4] of the same compound?
A: Its value is “dose dependent manner”.

Q: What about the cytotoxicity at 0.0005 µM ([4]; Neuroblastoma cell, 0.5 nM, p<0.035, read-out: inhibition of viability) of the same compound?
A: The cytotoxicity at 0.0005 µM was > 50%.

Q: What about the inhibition of proliferation ([4]; p<0.01) of the same compound?
A: The inhibition of proliferation was > 90%.

Q: What about the apoptotic cells (SK-N-SH cells; 7% in control) of the same compound?
A: The apoptotic cells was 45%.

Q: What about the cell cycle effect (SK-N-SH cells; data not shown) of the same compound?
A: Its cell cycle effect is “G0/G1 block, inhibition of S-phase”.

Q: And the “caspase-9 activation (immunoblot)” value (Caspase-9)?
A: Its value is “activated”.

Q: What about the “anticancer activity in high throughput screening system” value (panel of cancer cells; 200 nM dose) of the same compound?
A: The value was “effective”.

Q: What about the cytotoxicity (panel of cancer cells; preliminary studies) of the same compound?
A: The cytotoxicity was “exhibits cytotoxicity”.
